System: hematopoietic progenitors (MPP^FL+, CLP, DN1, DN2, DN3)
Assay: OP9:OP9DL1 stromal co-cultures, myeloid versus lymphoid progeny by flow cytometry
Format: cell-based, mouse
Conditions: 50 nM; for myeloid versus lymphoid progeny: DN3 progenitors; for myeloid versus lymphoid progeny / percentage of myeloid progeny versus lymphoid progeny: 6 days after plating on OP9:OP9DL1 stroma; for percentage of myeloid progeny versus lymphoid progeny: MPP^FL+, CLP, DN1 and DN2 progenitors
Description: FIG. 6 is a series of graphical representations of FACS plots and quantitation of myeloid versus lymphoid progeny. FIG. 6a are representative FACS plots of progeny from hematopoietic progenitors 6 days after plating on OP9:OP9DL1 stroma in the presence or absence of 5-aza-2′deoxycytidine. […] FIG. 6b is a histogram depicting quantitation of myeloid versus lymphoid progeny. The percentage of myeloid versus lymphoid progeny, as defined above, were quantified for each well from the experiment in a. Each bar represents the average of triplicate wells, and the error bars are the standard deviations between wells.
OP9:OP9DL1 stromal co-cultures. 3000 OP9 and 3000 OP9DL1 cells were plated in each well of 96 well plates in MEMa+10% FBS. The next day, 50 double-sorted progenitors were plated per well in the presence of 5 ng/ml IL-7 and F1t3L, and 10 ng/ml IL-3, IL-6, M-CSF, GM-CSF, and G-CSF (PeproTech). 50 nM 5-aza-2′-deoxycytide (Sigma) or vehicle (50% acetic acid) was added to the wells as indicated. At day 3, half of the media plus cytokines and drugs was replaced. At day 6, progeny from each well were stained and analyzed by flow cytometry to identify lymphoid versus myeloid progeny.
To test the hypothesis that reduced methylation preferentially promotes myeloid as opposed to lymphoid differentiation, an in vitro assay system that promotes both myeloid and lymphoid development was used (as in Engel et al., Epigenetics. 2009;4:98-99 and Bell et al., Nature. 2008;452:764-767). […] It evident that inhibiting DNA methylation promotes myeloid versus lymphoid specification, providing a mechanism for the myeloid skewing observed in Dnmt1 hypomorphs.

[1] = listed as 5-aza-2′deoxycytidine

## Nc1ncn([C@H]2C[C@H](O)[C@@H](CO)O2)c(=O)n1 [5-aza-2′-deoxycytidine]
DN1 cells, 6 days
  myeloid skewing, compared between progenitor populations: most pronounced in DN1 cells
  myeloid versus lymphoid progeny: remained lymphoid committed
  percentage of myeloid progeny versus lymphoid progeny: increased at the expense of lymphoid progeny
[1]
  myeloid versus lymphoid progeny: continued to generate an exclusively lymphoid readout
  percentage of myeloid progeny versus lymphoid progeny: trended towards generating more myeloid progeny
DN3 wells, 6 days
  cell expansion: inhibited cell expansion
